From patent US3975538A, “Miticidally active compositions” (priority 1974, dated 1976)

Columns and labels:
[1] = test system: citrus red mite, Panonychus citri; assay: Experiment 1 miticidal test (citrus red mite on potted lemon tree); assay type: in vivo; settings: 240 h, larvae and adults, 200 ppm in water, 20 cc spray, 10 days at 28°C, read-out: Evaluation (mortality of mites and eggs)
Description: In this experiment, approximately 50 larvae and adults of the citrus red mite, Panonychus citri were first released on the leaves of a young lemon tree, with about 10 leaves, growing in a pot (9 cm in diameter). […] Two days later, each potted plant was sprayed with 20 cc of one of these preparations with a spray gun (under 1 kg/cm^2 pressure, 80 cm distance from the plant) in a spray chamber. After the spraying, the pots were placed in a air-conditioned greenhouse (28°C) for 10 days, the number of mites and eggs surviving on the leaves counted.

eggs of citrus red mite = assay: Experiment 4 ovicidal test (citrus red mite eggs on trifoliate orange); assay type: in vivo, Panonychus citri; settings: 500 ppm in water, 20 cc spray, 7 days at 28°C, three repeats
Description: (§1) Criteria for evaluating effectiveness:
In this experiment, 20 female adults of the citrus red mite were released on the leaves of the potted trifoliate orange (15 cm in height). The pots were then placed in a air-conditioned greenhouse (28°C) for 2 days. Then the adults were removed from the plant and the eggs laid on the leaves were subjected to the ovicidal test. The number of the eggs on each plant was counted prior to the chemical application. […] 20 cc of each compound was sprayed on one of the plants. After spraying, the pots were returned to the air-conditioned greenhouse and kept there for 7 days. Then, by microscopic inspection, the numbers of unhatched eggs, the larvae which died after hatching, and the surviving larvae, respectively, on each plant were counted.

[2] = test system: Kanzawa spider mite, Tetranychus kanzawai; assay: Experiment 3 miticidal test (Kanzawa spider mite on pea seedling); assay type: in vivo; settings: female adults, 500 ppm in water, 20 cc spray, three repeats, read-out: Evaluation (mortality of mites)
Source text: as §1
In this experiment, one day after approximately 50 female adults of the Kanzawa spider mite, Tetranychus kanzawai, were placed on the leaves of a seedling of the pea plant (5 days after germination), growing in pots (9 cm in diameter), the plant was sprayed with emulsion of the compound of Formula (I), diluted to 500 ppm in water. […] The test was repeated three times.

[3] = test system: two-spotted spider mite, Tetranychus urticae; assay: Experiment 2 miticidal test (two-spotted spider mite on pea seedling); assay type: in vivo; settings: 48 h, female adults, 500 ppm in water, 20 cc spray, 2 days at 28°C, read-out: Evaluation (mortality of mites)
Description: as §1
After spraying the pots were placed in a air-conditioned greenhouse (28°C) for 2 days.

[4] = test system: citrus red mite which show resistance to citrazon; assay: Experiment 5 test on citrazon-resistant citrus red mite; assay type: in vivo; settings: Panonychus citri, 48 h, read-out: Death rate
Description: 100 female adults of citrus red mite which show resistance to citrazon were released on the leaves of the potted trifoliate orange (The pot: 9 cm in diameter). 20 cc each of the emulsions 100 prepared in Example 4, of compound No.4 and citrazon (mentioned before) for comparison of different concentrations was sprayed on one of the pots. After spraying the pots were kept in a kasten for 2 days and from the number of the surviving mites the death rates were calculated.

| Structure (SMILES) | mortality at 200 ppm [1] [%] | Evaluation (ovicidal effectiveness) (eggs of citrus red mite) | mortality at 500 ppm [2] [%] | mortality at 500 ppm [3] [%] | further results |
| --- | --- | --- | --- | --- | --- |
| CCOC(=NOC(=O)SC(C)C)c1c(OC)ccc2ccccc12 [compound 13, ethyl O-isopropylthiocarbonyl-2-methoxy-1-naphthohydroxamate] | 100 |  |  |  |  |
| CCOC(=O)ON=C(OCC)c1c(OC)ccc2ccccc12 [compound 2, ethyl O-ethoxycarbonyl-2-methoxy-1-naphthohydroxamate] | 90 to 99 | ++ (90 - 99 %) |  |  |  |
| CCOC(=NOC(=O)c1ccc(C)cc1)c1c(OC)ccc2ccccc12 [Control No. 2, ethyl 0-(4-methylbenzoyl)-2-methoxy-1-naphthohydroxamate] | < 49 | - (49 % or less) | < 49 | < 49 |  |
| CCOC(=NOC(=O)c1ccccc1)c1c(OC)ccc(Cl)c1OC [Citrazon, ethyl O-benzoyl-3-chloro-2,6-dimethoxybenzohydroxamate] |  |  |  |  | mortality at 12.5 ppm [4]: 19.5%; mortality at 25 ppm [4]: 25.8%; mortality at 50 ppm [4]: 40.6%; mortality at 100 ppm [4]: 40.5%; mortality at 200 ppm [4]: 43.5%; mortality at 400 ppm [4]: 68% |
| CCOC(=NOC(=O)c1ccccc1)c1c(OC)ccc2ccccc12 [Control No. 1, ethyl O-benzoyl-2-methoxy-1-naphthohydroxamate] | < 49 | - (49 % or less) | < 49 | < 49 |  |
